In brackets after ≈: the same amount, converted by molar mass. Where two headings read alike, the source gives them in different places.
Key:
M. hyopneumoniae NB12 = assay: MIC against Mycoplasma in vitro (Friis broth with agarose); format: cell-based; conditions: Mesomycoplasma hyopneumoniae
M. hyopneumoniae JF 435 = assay: as above; format: cell-based; conditions: Mesomycoplasma hyopneumoniae, JF435, 144 h
M. hyopneumoniae HK (2) = assay: as above; format: cell-based; conditions: Mesomycoplasma hyopneumoniae, 144 h
[1] = test system: M. hyopneumoniae PW/C/210; assay: as above; format: cell-based; conditions: Mesomycoplasma hyopneumoniae, 144 h; M. hyopneumoniae PW/C/210; 6 days at 37° C; read-out: MIC
M. hyopneumoniae LABER = assay: as above; format: cell-based; conditions: Mesomycoplasma hyopneumoniae, 144 h
M. hyopneumoniae UCD 1 = assay: as above; format: cell-based; conditions: Mesomycoplasma hyopneumoniae, UCD1, 144 h
[2] = test system: M. hyopneumoniae NCTC 101101; assay: as above; format: cell-based; conditions: Mesomycoplasma hyopneumoniae, NCTC101101, 144 h
M. hyorhinis ATCC 23234 = assay: as above; format: cell-based; conditions: Mesomycoplasma hyorhinis, ATCC23234, 144 h
[3] = test system: M. hyosynoviae ATCC 25591; assay: as above; format: cell-based; conditions: 144 h
M. dispar NCTC 10125 = assay: as above; format: cell-based; conditions: 144 h
M. pneumoniae ATCC 15492 = assay: as above; format: cell-based; conditions: Mycoplasmoides pneumoniae, ATCC15492, 144 h
E. coli NCTC 10418 = assay: MIC against veterinary bacteria in vitro (Diagnostic Sensitivity Test Agar); conditions: Escherichia coli, NCTC10418, 18 h
Description: (§1) The activity of the normonyl derivatives of the Examples against various veterinarily important bacteria, was assayed in vitro using two-fold serial dilutions in Diagnostic Sensitivity Test Agar inoculated with 10^4 organisms.

E. coli E1 = assay: as above; conditions: Escherichia coli, E1, 18 h
Description: as §1

S. dublin S7 = assay: as above; conditions: Salmonella enterica, S7, 18 h
Description: as §1

S. typhimurium S18 = assay: as above; conditions: Salmonella enterica, 18 h
Description: as §1

Bord. bronchiseptica B08 = assay: as above; conditions: Bordetella bronchiseptica, B08, 18 h
Description: as §1

Past. multocida PA1 = assay: as above; conditions: Pasteurella multocida, PA1, 18 h
Description: as §1

Past. multocida PA2 = assay: as above; conditions: Pasteurella multocida, PA2, 18 h
Description: as §1

[4] = test system: Corynebacterium pyogenes CY1; assay: as above; conditions: CY1, 18 h
Description: as §1

Staph. aureus Oxford = assay: as above; conditions: Staphylococcus aureus, 18 h
Description: as §1

Strep. uberis SPU1 = assay: as above; conditions: Streptococcus uberis, SPU1, 18 h
Description: as §1

[5] = test system: M. hyopneumoniae J2206/183^b; assay: MIC against Mycoplasma in vitro (Friis broth with agarose); format: cell-based; conditions: Mesomycoplasma hyopneumoniae, 144 h
B. subtilis ATCC 6633 = assay: MIC against veterinary bacteria in vitro (Diagnostic Sensitivity Test Agar); conditions: Bacillus subtilis, ATCC6633, 18 h
Description: as §1

[6] = test system: Neisseria catarrhalis 1502; assay: MIC against human bacteria in vitro (nutrient agar, chocolated horse blood); format: cell-based; conditions: human; Neisseria catarrhalis 1502; 18 hours at 37° C; read-out: MIC
In short: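 Serial dilutions in nutrient agar plus 5% chocolated horse blood served as the in vitro test system.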

[7] = M. hyopneumoniae JF 435, 6 days at 37° C, read-out: MIC
[8] = M. hyopneumoniae LABER, 6 days at 37° C, read-out: MIC
[9] = M. hyopneumoniae UCD 1, 6 days at 37° C, read-out: MIC
[10] = M. hyorhinis ATCC 23234, 6 days at 37° C, read-out: MIC
[11] = M. hyosynoviae ATCC 25591, 6 days at 37° C, read-out: MIC
[12] = M. dispar NCTC 10125, 6 days at 37° C, read-out: MIC
[13] = M. pneumoniae ATCC 15492, 6 days at 37° C, read-out: MIC
[14] = M. hyopneumoniae J2206/183^b, 6 days at 37° C, read-out: MIC
[15] = M. hyopneumoniae NCTC 101101, 6 days at 37° C, read-out: MIC

SMILES | MIC (M. hyopneumoniae JF 435; [7]) | MIC [1] | MIC (M. hyopneumoniae LABER; [8]) | MIC (M. hyopneumoniae UCD 1; [9]) | MIC [2] | MIC (M. hyorhinis ATCC 23234; [10]) | MIC [3, 11] | MIC (M. dispar NCTC 10125; [12]) | MIC (M. pneumoniae ATCC 15492; [13]) | MIC (E. coli NCTC 10418) | MIC (E. coli E1) | MIC (S. dublin S7) | MIC (S. typhimurium S18) | MIC (Bord. bronchiseptica B08) | MIC (Past. multocida PA1) | MIC (Past. multocida PA2) | MIC [4] | MIC (Staph. aureus Oxford) | MIC (Strep. uberis SPU1) | MIC [5, 14] | also measured
CSc1ccc(-c2nnc(C=C(C)CC3OCC(CC4OC4C(C)C(C)O)C(O)C3O)o2)cc1 (stereo not shown) [Example 3, 2-p-Methylthiophenyl-5-(1-normon-2-yl)-1,3,4-oxadiazole A] | 2.5 µg/mL (≈ 5.1 µM) | 0.5 µg/mL (≈ 1.02 µM) | 1 µg/mL (≈ 2.04 µM) | 1 µg/mL (≈ 2.04 µM) | 1 µg/mL (≈ 2.04 µM) | 0.5 µg/mL (≈ 1.02 µM) | 2.5 µg/mL (≈ 5.1 µM) | 0.25 µg/mL (≈ 0.51 µM) | > 10 µg/mL | > 80 µg/mL | > 80 µg/mL | > 80 µg/mL | > 80 µg/mL | > 80 µg/mL | 2.5 µg/mL (≈ 5.1 µM) | 2.5 µg/mL (≈ 5.1 µM) | > 80 µg/mL | 5 µg/mL (≈ 10.2 µM) | 2.5 µg/mL (≈ 5.1 µM) | – | MIC (M. hyopneumoniae NB12; 144 h, M. hyopneumoniae NB12, 6 days at 37° C, read-out: MIC): 1 µg/mL (≈ 2.04 µM); MIC (M. hyopneumoniae HK (2); M. hyopneumoniae HK (2), 6 days at 37° C, read-out: MIC): 1 µg/mL (≈ 2.04 µM)
CC(=Cc1nnc(-c2cccnc2)o1)CC1OCC(CC2OC2C(C)C(C)O)C(O)C1O (stereo not shown) [Example 5, 2-(1-Normon-2-yl)-5-(3-pyridyl)-1,3,4-oxadiazole A] | 2.5 µg/mL (≈ 5.61 µM) | 1 µg/mL (≈ 2.24 µM) | 1 µg/mL (≈ 2.24 µM) | – | – | 1 µg/mL (≈ 2.24 µM) | 1 µg/mL (≈ 2.24 µM) | 0.5 µg/mL (≈ 1.12 µM) | > 10 µg/mL | > 80 µg/mL | > 80 µg/mL | > 80 µg/mL | > 80 µg/mL | > 80 µg/mL | 1.25 µg/mL (≈ 2.81 µM) | 1.25 µg/mL (≈ 2.81 µM) | > 80 µg/mL | 20 µg/mL (≈ 44.9 µM) | 2.5 µg/mL (≈ 5.61 µM) | 2.5 µg/mL (≈ 5.61 µM) | MIC (M. hyopneumoniae NB12; NB12, 144 h): 2.5 µg/mL (≈ 5.61 µM); MIC (M. hyopneumoniae UCD 1): 2.5 µg/mL (≈ 5.61 µM); MIC [2, 15]: 2.5 µg/mL (≈ 5.61 µM); MIC (B. subtilis ATCC 6633): 2.5 µg/mL (≈ 5.61 µM)
CC(=Cc1nnc(-c2cccs2)o1)CC1OCC(CC2OC2C(C)C(C)O)C(O)C1O (stereo not shown) [Example 6, 2-(1-Normon-2-yl)-5-(2-thienyl)-1,3,4-oxadiazole A] | – | – | – | – | 5 µg/mL (≈ 11.1 µM) | – | – | 1 µg/mL (≈ 2.22 µM) | > 10 µg/mL | > 80 µg/mL | > 80 µg/mL | > 80 µg/mL | > 80 µg/mL | > 80 µg/mL | 2.5 µg/mL (≈ 5.55 µM) | – | > 80 µg/mL | 10 µg/mL (≈ 22.2 µM) | 5 µg/mL (≈ 11.1 µM) | – | MIC (M. hyopneumoniae JF 435): 5 µg/mL (≈ 11.1 µM); MIC (M. hyopneumoniae HK (2)): 5 µg/mL (≈ 11.1 µM); MIC [5]: 5 µg/mL (≈ 11.1 µM); MIC (M. hyopneumoniae LABER): 2.5 µg/mL (≈ 5.55 µM); MIC (M. hyopneumoniae UCD 1): 5 µg/mL (≈ 11.1 µM); MIC (M. hyorhinis ATCC 23234): 2.5 µg/mL (≈ 5.55 µM); MIC [3]: 2.5 µg/mL (≈ 5.55 µM)
CC(=Cc1nnc(-c2ccncc2)o1)CC1OCC(CC2OC2C(C)C(C)O)C(O)C1O (stereo not shown) [Example 7, 2-(1-Normon-2-yl)-5-(4-pyridyl)-1,3,4-oxadiazole A] | 2.5 µg/mL (≈ 5.61 µM) | – | – | 1 µg/mL (≈ 2.24 µM) | – | 0.5 µg/mL (≈ 1.12 µM) | 0.5 µg/mL (≈ 1.12 µM) | – | – | > 80 µg/mL | > 80 µg/mL | > 80 µg/mL | > 80 µg/mL | > 80 µg/mL | 2.5 µg/mL (≈ 5.61 µM) | 0.625 µg/mL (≈ 1.4 µM) | > 80 µg/mL | > 80 µg/mL | 2.5 µg/mL (≈ 5.61 µM) | 2.5 µg/mL (≈ 5.61 µM) | MIC [2, 15]: 2.5 µg/mL (≈ 5.61 µM); MIC (M. dispar NCTC 10125): 0.25 µg/mL (≈ 0.561 µM); MIC (M. pneumoniae ATCC 15492): > 10 µg/mL; MIC [6]: 0.25 µg/mL (≈ 0.561 µM); MIC (B. subtilis ATCC 6633): 2.5 µg/mL (≈ 5.61 µM)

Reference: patent US4861788A, “Antibacterial 1-normon-2-yl-heterocyclic compounds” (Beecham Group plc, priority 1983, dated 1989)
